Data on 22 compounds can be found in ChEMBL document CHEMBL3098005, “Structure activity relationships of fused bicyclic and urea derivatives of spirocyclic compounds as potent CCR1 antagonists” (Bioorg Med Chem Lett, 2014).

Data set [1] has as its target T1, C-C chemokine receptor type 1 (Homo sapiens, UniProt P32246).
T1 sequence (P32246 whole entry): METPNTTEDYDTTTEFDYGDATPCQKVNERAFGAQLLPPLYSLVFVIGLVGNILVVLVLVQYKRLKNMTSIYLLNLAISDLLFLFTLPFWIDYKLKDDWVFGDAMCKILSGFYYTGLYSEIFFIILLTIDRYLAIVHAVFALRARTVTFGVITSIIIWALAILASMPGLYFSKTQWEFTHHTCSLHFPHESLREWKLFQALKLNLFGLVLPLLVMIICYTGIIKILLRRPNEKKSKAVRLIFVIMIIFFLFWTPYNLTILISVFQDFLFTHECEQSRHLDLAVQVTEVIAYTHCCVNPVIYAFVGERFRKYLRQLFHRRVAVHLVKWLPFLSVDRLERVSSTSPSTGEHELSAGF
As to the kind of experiment: Displacement of [125I]MIP-1alpha from human recombinant CCR1 expressed in HEK293 cell membranes after 1.5 hrs by microbeta counting analysis. In general terms: In a radioligand displacement assay an active substance lowers the binding of a labelled ligand.

Data set [2] is described as follows: Metabolic stability in human liver microsomes. Type of data set: ADME. To be noted: read-out: Stability. For orientation: Liver microsomes are a subcellular fraction often used to study metabolism.
Data set [3] in a line: Permeability across human Caco2 cells. Type of data set: ADME, cell-based. To be noted: Caco-2, read-out: permeability. (In general: Passage across Caco-2 layers is used to estimate intestinal permeability.)
Data set [4] deals with T2, C-C chemokine receptor type 1 (Rattus norvegicus, UniProt A6I4C9).
T2 sequence (A6I4C9 whole entry): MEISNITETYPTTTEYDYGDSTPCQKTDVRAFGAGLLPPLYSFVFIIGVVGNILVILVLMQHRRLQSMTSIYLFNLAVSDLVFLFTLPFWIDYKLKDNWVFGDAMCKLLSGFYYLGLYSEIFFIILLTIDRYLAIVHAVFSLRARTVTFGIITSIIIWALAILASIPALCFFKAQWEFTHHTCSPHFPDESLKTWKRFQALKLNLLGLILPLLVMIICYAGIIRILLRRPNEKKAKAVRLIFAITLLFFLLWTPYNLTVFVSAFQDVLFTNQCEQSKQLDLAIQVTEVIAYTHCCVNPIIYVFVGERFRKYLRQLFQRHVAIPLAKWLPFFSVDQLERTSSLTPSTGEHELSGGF
As to the kind of experiment: Displacement of [125I]MIP-1alpha from rat CCR1.

For data set [5], the target named is Voltage-gated inwardly rectifying potassium channel KCNH2 (Homo sapiens, UniProt Q12809). Description: Inhibition of human ERG expressed in HEK cells after 3 hrs by ion flux electrophysiology.
Another data set has as its system Hepatocyte. As to the kind of experiment: Metabolic stability in human hepatocytes measured per 10^6 cells. Type of data set: ADME, cell-based.

Voltage-gated inwardly rectifying potassium channel KCNH2, sequence (Q12809 whole entry): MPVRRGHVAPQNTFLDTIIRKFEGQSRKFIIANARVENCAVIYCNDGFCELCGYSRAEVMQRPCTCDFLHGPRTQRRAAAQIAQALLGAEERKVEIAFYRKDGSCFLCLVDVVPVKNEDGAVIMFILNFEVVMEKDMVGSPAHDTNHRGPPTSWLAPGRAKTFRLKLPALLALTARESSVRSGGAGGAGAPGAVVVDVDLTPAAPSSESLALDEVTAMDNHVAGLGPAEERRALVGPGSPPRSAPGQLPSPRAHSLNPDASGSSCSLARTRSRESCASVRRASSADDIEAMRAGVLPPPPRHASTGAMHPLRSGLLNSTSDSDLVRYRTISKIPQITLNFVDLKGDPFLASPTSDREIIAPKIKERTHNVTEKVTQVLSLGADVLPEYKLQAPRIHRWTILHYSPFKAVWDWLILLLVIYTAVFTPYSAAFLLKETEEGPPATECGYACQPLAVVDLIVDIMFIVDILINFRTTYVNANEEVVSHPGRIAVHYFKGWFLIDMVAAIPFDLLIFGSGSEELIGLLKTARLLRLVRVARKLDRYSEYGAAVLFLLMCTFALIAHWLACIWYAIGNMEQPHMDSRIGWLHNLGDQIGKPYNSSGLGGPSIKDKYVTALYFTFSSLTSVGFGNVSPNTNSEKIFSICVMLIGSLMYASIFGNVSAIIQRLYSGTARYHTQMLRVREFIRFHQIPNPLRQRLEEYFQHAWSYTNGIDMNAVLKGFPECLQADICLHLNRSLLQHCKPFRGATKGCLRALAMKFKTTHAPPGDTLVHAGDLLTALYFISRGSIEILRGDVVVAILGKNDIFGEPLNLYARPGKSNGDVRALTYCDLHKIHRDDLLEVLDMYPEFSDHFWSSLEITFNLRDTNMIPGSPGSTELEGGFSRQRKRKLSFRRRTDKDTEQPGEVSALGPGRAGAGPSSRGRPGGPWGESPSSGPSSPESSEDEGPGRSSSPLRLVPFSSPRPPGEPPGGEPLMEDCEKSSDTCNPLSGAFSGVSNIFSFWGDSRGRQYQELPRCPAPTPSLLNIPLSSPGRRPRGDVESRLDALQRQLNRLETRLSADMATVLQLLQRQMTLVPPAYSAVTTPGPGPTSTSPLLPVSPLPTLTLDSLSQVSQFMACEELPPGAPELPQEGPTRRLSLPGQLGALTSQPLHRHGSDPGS

As usually defined, the IC50 is the midpoint of a concentration-inhibition curve. For `O=C(Nc1ccccc1OC[C@@H](O)CN1CCC2(CC1)Cc1cc(Cl)ccc1O2)N1CCCC1`, the IC50 in data set [1] turned out to be 1.4 nM. Moreover, the microsomal CLint in data set [2] was above 200 µL/min/mg. Besides, the Papp in data set [3] came out at 3.5 ×10⁻⁶ cm/s.

For `CNC(=O)Nc1ccc(OC)cc1OC[C@@H](O)CN1CCC2(CC1)Cc1cc(Cl)ccc1O2`, the IC50 amounted to 447 nM in data set [4] (read-out: IC50) and 4.5 nM in data set [1]. In data set [2], the microsomal CLint was found to be 71.2 µL/min/mg.

For the compound `CNC(=O)Nc1ccc(O)cc1OC[C@@H](O)CN1CCC2(CC1)Cc1cc(Cl)ccc1O2`, the IC50 was found to be 4600 nM in data set [5], 1760 nM in data set [4] (read-out: IC50) and 1.3 nM in data set [1]. The microsomal CLint in data set [2] was below 10 µL/min/mg. This compound registered a Stability in the data set on Hepatocyte of 5.4 µL/min. Besides, the Papp in data set [3] came to 9 ×10⁻⁶ cm/s.

Turning to `O=C(Nc1cc(Cl)c(O)cc1OC[C@@H](O)CN1CCC2(CC1)Cc1cc(Cl)ccc1O2)NC1CC1`, the values for the IC50 in data set [5], in data set [4] (read-out: IC50) and in data set [1] were 1000 nM, 16 nM and 1.8 nM, respectively. Moreover, the microsomal CLint in data set [2] was below 11.4 µL/min/mg. Further, the Stability with Hepatocyte was found to be 20.7 µL/min.

As for `COc1ccc(NC(=O)NC2CC2)c(OC[C@@H](O)CN2CCC3(CC2)Cc2cc(Cl)ccc2O3)c1`, the IC50 amounted to 50 nM in data set [4] (read-out: IC50) and 1.8 nM in data set [1]. Also, the microsomal CLint in data set [2] was found to be 114 µL/min/mg.

As for `O=C(Nc1ccc(O)cc1OC[C@@H](O)CN1CCC2(CC1)Cc1cc(Cl)ccc1O2)NC1CC1`, the IC50 in data set [4] (read-out: IC50) was 50 nM; in data set [1], 0.89 nM. For the same compound, the microsomal CLint in data set [2] was below 10 µL/min/mg. In addition, the Stability in the data set on Hepatocyte turned out to be 6.4 µL/min. In data set [3], the Papp is 2.67 ×10⁻⁶ cm/s.

Regarding `COc1ccc(NC(=O)NC2CC2)c(OC[C@@H](O)CN2CCC3(CC2)Cc2cc(F)ccc2O3)c1`, the IC50 in data set [4] (read-out: IC50) was 90 nM; in data set [1], 2.2 nM. Also, the microsomal CLint in data set [2] was found to be 133 µL/min/mg.

Consider `O=C(Nc1ccc(O)cc1OC[C@@H](O)CN1CCC2(CC1)Cc1cc(F)ccc1O2)NC1CC1`, for which the results for the IC50 in data set [5], in data set [4] (read-out: IC50) and in data set [1] were 3800 nM, 101 nM and 0.63 nM, respectively. The microsomal CLint in data set [2] turned out to be 15.1 µL/min/mg. Moreover, the Stability in the data set with Hepatocyte is 5.3 µL/min. The Papp in data set [3] is 0.93 ×10⁻⁶ cm/s.

Turning to `NC(=O)Nc1ccc(O)cc1OC[C@@H](O)CN1CCC2(CC1)Cc1cc(Cl)ccc1O2`, the IC50 in data set [5] was above 8900 nM; in data set [4] (read-out: IC50) it was 1580 nM; in data set [1], 3.2 nM. In addition, the microsomal CLint in data set [2] is below 10 µL/min/mg. This compound had a Stability with Hepatocyte below 3.8 µL/min. For the same compound, in data set [3], the Papp is 0.5 ×10⁻⁶ cm/s.

`NC(=O)Nc1ccccc1OC[C@@H](O)CN1CCC2(CC1)Cc1cc(Cl)ccc1O2`: the results for the IC50 in data set [5], in data set [4] (read-out: IC50) and in data set [1] were 400 nM, 2110 nM and 6.7 nM, respectively. Further, the microsomal CLint in data set [2] is 21.5 µL/min/mg. Moreover, in the data set on Hepatocyte, the Stability is below 3 µL/min. The Papp in data set [3] stood at 14 ×10⁻⁶ cm/s.

With `NC(=O)Nc1ccc(F)cc1OC[C@@H](O)CN1CCC2(CC1)Cc1cc(Cl)ccc1O2`, the IC50 in data set [4] (read-out: IC50) came out at 1620 nM; in data set [1], 5.6 nM. In addition, the microsomal CLint in data set [2] amounted to 17 µL/min/mg. The Stability with Hepatocyte came to 5.7 µL/min. Further, in data set [3], the Papp came out at 16 ×10⁻⁶ cm/s.

In the case of `O=C1COc2cccc(OC[C@@H](O)CN3CCC4(CC3)Cc3cc(Cl)ccc3O4)c2N1`, the IC50 in data set [5] turned out to be 600 nM; in data set [4] (read-out: IC50), 1260 nM; in data set [1], 7.1 nM. Moreover, the microsomal CLint in data set [2] worked out at 33.7 µL/min/mg. The same compound displayed a Stability in the data set on Hepatocyte of 7.8 µL/min. Also, the Papp in data set [3] turned out to be 11 ×10⁻⁶ cm/s.

`O=C1CCc2cccc(OC[C@@H](O)CN3CCC4(CC3)Cc3cc(Cl)ccc3O4)c2N1`: the IC50 is 500 nM in data set [5], “Not Active” in data set [4] and 32 nM in data set [1]. Further, in data set [2], the microsomal CLint was found to be 65 µL/min/mg. Further, the Stability entry with Hepatocyte is “Unstable”. The Papp in data set [3] was 16 ×10⁻⁶ cm/s.

For the compound `O=c1ccc2cccc(OC[C@@H](O)CN3CCC4(CC3)Cc3cc(Cl)ccc3O4)c2[nH]1`, the IC50 result in data set [4] was “Not Active”; in data set [1] it was 37 nM. Further, in data set [2], the microsomal CLint was determined as 12.5 µL/min/mg. Also, the Stability result in the data set on Hepatocyte was “Unstable”.

Take `O=c1[nH]c(=O)c2cccc(OC[C@@H](O)CN3CCC4(CC3)Cc3cc(Cl)ccc3O4)c2[nH]1`: the IC50 in data set [4] (read-out: IC50) is above 6000 nM; in data set [1] it was 560 nM.

On to `Cc1cc2c(OC[C@@H](O)CN3CCC4(CC3)Cc3cc(Cl)ccc3O4)cccc2o1`, for which the IC50 result in data set [4] is “Not Active”; in data set [1], 160 nM. Moreover, in data set [2], the microsomal CLint came out at 15 µL/min/mg.

For the compound `Nc1nc2c(OC[C@@H](O)CN3CCC4(CC3)Cc3cc(Cl)ccc3O4)cccc2s1`, the figures for the half-maximal inhibitory concentration (IC50) result in data set [4] and in data set [1] were “Not Active” and 1300 nM, respectively.

Regarding `Cc1nc2c(OC[C@@H](O)CN3CCC4(CC3)Cc3cc(Cl)ccc3O4)cccc2s1`, the IC50 result in data set [4] is “Not Active”; in data set [1], 1300 nM.

As to `N[C@H](COc1cccc2c1NC(=O)CO2)CN1CCC2(CC1)Cc1cc(F)ccc1O2`, the IC50 result in data set [4] is “Not Active”; in data set [1], 79 nM. The microsomal CLint in data set [2] was below 10 µL/min/mg.

Regarding `N[C@H](COc1cccc2ccc(=O)[nH]c12)CN1CCC2(CC1)Cc1cc(F)ccc1O2`, the IC50 in data set [5] is 1200 nM; in data set [4] it was “Not Active”; in data set [1] it was 560 nM. Further, the microsomal CLint in data set [2] is below 10 µL/min/mg.

As to `CNC(=O)Nc1ccc(OC)cc1OC[C@@H](O)CN1CCC2(CC1)Cc1cc(F)ccc1O2`, the values for the IC50 in data set [4] (read-out: IC50) and in data set [1] were 1780 nM and 13 nM, respectively. For the same compound, the microsomal CLint in data set [2] turned out to be 87.9 µL/min/mg.

For `CNC(=O)Nc1ccc(O)cc1OC[C@@H](O)CN1CCC2(CC1)Cc1cc(F)ccc1O2`, the figures for the IC50 in data set [5] and in data set [1] were 13100 nM and 3.2 nM, respectively. For the same compound, in data set [2], the microsomal CLint was below 10 µL/min/mg. In the data set with Hepatocyte, the Stability was found to be 10.7 µL/min.
